Test: Single-dose, randomized, two-way crossover bioequivalence/pharmacokinetic studies A-D under fed conditions (plasma LC-MS/MS, NCA)
Settings: reference formulation, Study C, metformin 850 mg, empagliflozin […] mg, n 35
Method: To ensure standardization, all subjects underwent at least 10 h of overnight pre-dose fasting on the study day. Participants then received a standardized high-fat, high-calorie breakfast (approximately 800 kcal). Dosing was administered 30 min after the start of this meal, followed by the intake of a 10% glucose solution (250 mL). The glucose solution was administered as a prophylactic measure to reduce the risk of hypoglycemia. It was not intended to simulate fed-state caloric intake beyond the standardized meal, in accordance with institutional clinical practice.
Each study period included a one-day treatment followed by a 14-day washout period. […] All adverse events, including duration, severity, causality, and outcomes, were strictly monitored and recorded by the principal investigator and medical staff throughout the study.
Promptly after collection, the samples were centrifuged at 3500 rpm for 10 min at 4 °C to separate the plasma. The harvested plasma was then transferred into appropriately labeled cryovials and immediately cryopreserved at −70 ± 15 °C until bioanalytical quantification. […]
The primary pharmacokinetic parameters evaluated to establish bioequivalence were the maximum observed plasma concentration (Cmax) and the area under the concentration–time curve from time zero to the last measurable concentration (AUC0-t). […]

## CN(C)C(=N)N=C(N)N [Metformin]
  AUC0-t (mean): 13,288.1 ng⋅h/mL

Source: PMC13516501 (Pharmaceuticals, 2026)
